Tests used:
[1] = test system: MDA-MB-4355 Breast Cancer Cells; assay: XTT cell proliferation assay, breast cancer cells; parameters: species or system human; conditions: 200 μM based on Re, 24 h
Protocol: (§1) In a typical experiment (see FIG. 10) an average of 2000 cells were grown in microtiter plates (tissue culture grade, 96 wells, flat bottom) in a final volume of 100 μL culture medium per well in a humidified-atmosphere (37° C., >6.5% CO2). After 24 h the rhenium complex was added the wells (final concentrations 200 μM based on Re) and the cells were grown for further 24 h under a humidified atmosphere. After the incubation period 50 μL of the XTT labeling mixture were added to each well. The plates were incubated again for 4 h. After the this final incubation period the spectrophotometrical absorbance (optical density OD) of each well was measured at 450 nm.
(§2) Control experiments were performed as described above without the addition of the rhenium compounds. Blanks were obtained by adding 50 μL of H2O instead of the XTT labeling mixture. Experiments were done in double and the results represent the average.
(§3) The % of cell survival was calculated base on the relative OD of the samples. Maximum control OD was set to 100% cell survival.

[2] = test system: ΦX174 plasmid DNA; assay: Stability of the [M(CO)3]+ ΦX174 plasmid DNA adduct, histidine challenge; type: binding; conditions: 100-fold excess of histidine
Protocol: (§4) ΦX174 plasmids were purchased from Promega and used without further purification. ΦX174 RF plasmid DNA (0.1 mg) was mixed with the corresponding rhenium complexes in H2O at [complex]/[bp] 0.018-1.8/1. The mixtures were incubated in water at 37° C. for 22 h in the dark before analyzing by gel electrophoresis. The pH of the mixtures remained constant at ≈7 in all cases.
(§5) DNA binding was examined by gel electrophoretic mobility shift assays through 9 cm 0.75% agarose slab gels with TAE running buffer. The gels were run at RT, with voltages varying between 50 and 75 V. Running time depended upon the voltage and were usually between 1.5-2 h. The resultant gels were stained with ethidium bromide in the buffer at a concentration of ≈0.3 μg/mL. Bands were visualized by […] UV transillumination equipped with a digital camera.
Complexes 1 and 7 were incubated with ΦX174 plasmid DNA as described in Example 6. Subsequently, the plasmid was challenged with histidine to cleave the complexes from ΦX174 plasmid DNA.

[3] = test system: OVMZ-6-WT Ovarian Cancer Cells; assay: XTT cell proliferation assay, ovarian cancer cells; parameters: species or system human; conditions: 200 μM based on Re, 24 h
Protocol: as §1, §2, §3
(§6) The procedure is as described in Example 10 and FIG. 10. Only the cancer cell line varies.

[4] = test system: B16 F1 mouse melanoma cells; assay: XTT cell proliferation assay, melanoma cells; conditions: 200 μM based on Re (lower for poorly soluble complexes), 24 h
Protocol: as §1, §2, §3, §6

[5] = test system: ΦX174 plasmid DNA; assay: Interaction with ΦX174 plasmid DNA, gel electrophoretic mobility shift; type: binding; conditions: [complex]/[bp] 0.018-1.8/1, water, 37° C., 22 h, agarose gel
Protocol: as §4, §5

Molecule | cytotoxicity (% of cell survival) [1] | release of complex from ΦX174 plasmid DNA by histidine [2] | cytotoxicity (% of cell survival) [3] | cytotoxicity (% of cell survival) [4] | scrambling (structural change) of ΦX174 plasmid DNA [5]
[Re(9-MeG)2(H2O) (CO)3] (ClO4) [Complex 3] | inhibit cell proliferation |  |  |  | 
(Et4N)2[ReBr3(CO)3] [Complex 1] | inhibit cell proliferation | no release could be observed | inhibits cell proliferation | strongly inhibit cell proliferation | 
N.N.[Cl][Pt][Cl] [cisplatin, reference compound] |  |  |  |  | increased amount of scrambling

Source: US20070071672A1, “Use of metal tricarbonyl complexes as radiotherapeutic chemotoxic agents” (priority 2003, published 2007)
